This assay concerns the target T1, rat B1R (bradykinin receptor 1) (Rattus norvegicus, UniProt P97583).
T1 construct: expressed in transfected cells; host or cells: CHO K1 cells
T1 sequence (P97583 1-337): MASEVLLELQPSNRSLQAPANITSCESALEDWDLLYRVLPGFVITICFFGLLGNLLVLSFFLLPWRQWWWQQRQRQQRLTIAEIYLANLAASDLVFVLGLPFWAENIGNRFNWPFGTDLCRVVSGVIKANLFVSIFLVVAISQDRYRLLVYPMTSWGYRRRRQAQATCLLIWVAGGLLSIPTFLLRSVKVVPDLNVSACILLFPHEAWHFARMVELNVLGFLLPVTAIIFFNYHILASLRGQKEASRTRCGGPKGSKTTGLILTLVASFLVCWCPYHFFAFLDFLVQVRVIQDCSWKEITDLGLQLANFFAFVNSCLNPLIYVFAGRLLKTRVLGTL
In words: FLIPR Ca2+ assay (Fluo-4) on CHO K1 cells stably transfected with the B1R gene of the rat (rB1R cells): % inhibition at 10 μM / IC50, agonist Des-Arg9-bradykinin. The assay is classed as cell-based. To be noted: CHO-K1, rat B1R. An outline of the steps:
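Peak fluorescence counts read on FLIPR (λex 488, λem 540 nm) after two additions: compound first, then agonist at EC80 after 10–20 min. Human line challenged with Lys-Des-Arg9-bradykinin, rat line with Des-Arg9-bradykinin. Suppression of Ca2+ inflow expressed as % of maximum inhibition.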
With `O=C(NC1CCc2ccc(C(=O)N3CCC4(CCN(C(=O)Nc5ccc(Cl)cc5Cl)CC4)CC3)cc21)c1ccccc1Cl` (stereo not drawn) [IND_CC-710, 3-[3-[(2-Chloro-benzoyl)amino]-2,3-dihydro-1H-indene-5-carbonyl]-N-(2,4-dichlorophenyl)-3,9-diazaspiro[5.5]undecane-9-carboxylic acid amide], the inhibition at 10 µM is 90%.

Consider `O=C(NC1CCc2ccc(C(=O)N3CCC4(CCN(C(=O)Nc5ccc(F)cc5F)CC4)CC3)cc21)c1ccccc1Cl` (stereo not drawn) [IND_CC-711, 3-[3-[(2-Chloro-benzoyl)amino]-2,3-dihydro-1H-indene-5-carbonyl]-N-(2,4-difluoro-phenyl)-3,9-diazaspiro[5.5]undecane-9-carboxylic acid amide], for which the inhibition at 10 µM came to 94%. On to `CCCNC(=O)N1CCC2(CC1)CCN(C(=O)c1ccc3c(c1)C(N(C(=O)c1ccccc1Cl)C1CC1)CC3)C2` (stereo not drawn) [IND_CC-712, 2-[3-[(2-Chloro-benzoyl)-cyclopropyl-amino]-2,3-dihydro-1H-indene-5-carbonyl]-N-propyl-2,8-diazaspiro[4.5]decane-8-carboxylic acid amide], for which the inhibition at 10 µM amounted to 76%. As to `O=C(Nc1ccc(F)c(Cl)c1)N1CCC2(CC1)CCN(C(=O)c1ccc3c(c1)C(N(C(=O)c1ccccc1Cl)C1CC1)CC3)C2` (stereo not drawn) [IND_CC-713, 2-[3-[(2-Chloro-benzoyl)-cyclopropyl-amino]-2,3-dihydro-1H-indene-5-carbonyl]-N-(3-chloro-4-fluoro-phenyl)-2,8-diazaspiro[4.5]decane-8-carboxylic acid amide], 10 µM produced 77% inhibition. The compound `O=C(Nc1ccc(Cl)cc1C(F)(F)F)N1CCC2(CC1)CCN(C(=O)c1ccc3c(c1)C(N(C(=O)c1ccccc1Cl)C1CC1)CC3)C2` (stereo not drawn) [IND_CC-714, 2-[3-[(2-Chloro-benzoyl)-cyclopropyl-amino]-2,3-dihydro-1H-indene-5-carbonyl]-N-[4-chloro-2-(trifluoromethyl)-phenyl]-2,8-diazaspiro[4.5]decane-8-carboxylic acid amide] gave an inhibition at 10 µM of 51%.

Compound `N#Cc1cccc(NC(=O)N2CCC3(CC2)CCN(C(=O)c2ccc4c(c2)C(N(C(=O)c2ccccc2Cl)C2CC2)CC4)C3)c1` (stereo not drawn) [IND_CC-715, 2-[3-[(2-Chloro-benzoyl)-cyclopropyl-amino]-2,3-dihydro-1H-indene-5-carbonyl]-N-(3-cyano-phenyl)-2,8-diazaspiro[4.5]decane-8-carboxylic acid amide] returned an inhibition at 10 µM of 79%. In turn, `O=C(NCc1ccccc1)N1CCC2(CC1)CCN(C(=O)c1ccc3c(c1)C(N(C(=O)c1ccccc1Cl)C1CC1)CC3)C2` (stereo not drawn) [IND_CC-716, N-Benzyl-2-[3-[(2-chloro-benzoyl)-cyclopropyl-amino]-2,3-dihydro-1H-indene-5-carbonyl]-2,8-diazaspiro[4.5]decane-8-carboxylic acid amide] registered an inhibition at 10 µM of 80%.

For the compound `O=C(NC1CCCCC1)N1CCC2(CC1)CCN(C(=O)c1ccc3c(c1)C(N(C(=O)c1ccccc1Cl)C1CC1)CC3)C2` (stereo not drawn) [IND_CC-717, 2-[3-[(2-Chloro-benzoyl)-cyclopropyl-amino]-2,3-dihydro-1H-indene-5-carbonyl]-N-cyclohexyl-2,8-diazaspiro[4.5]decane-8-carboxylic acid amide], testing at 10 µM gave an inhibition of 72%. `O=C(Nc1c(Cl)cccc1Cl)N1CCC2(CC1)CCN(C(=O)c1ccc3c(c1)C(N(C(=O)c1ccccc1Cl)C1CC1)CC3)C2` (stereo not drawn) [IND_CC-718, 2-[3-[(2-Chloro-benzoyl)-cyclopropyl-amino]-2,3-dihydro-1H-indene-5-carbonyl]-N-(2,6-dichloro-phenyl)-2,8-diazaspiro[4.5]decane-8-carboxylic acid amide] displayed an inhibition at 10 µM of 52%. Compound `O=C(Nc1ccc(F)cc1F)N1CCC2(CC1)CCN(C(=O)c1ccc3c(c1)C(N(C(=O)c1ccccc1Cl)C1CC1)CC3)C2` (stereo not drawn) [IND_CC-719, 2-[3-[(2-Chloro-benzoyl)-cyclopropyl-amino]-2,3-dihydro-1H-indene-5-carbonyl]-N-(2,4-difluoro-phenyl)-2,8-diazaspiro[4.5]decane-8-carboxylic acid amide] registered an inhibition at 10 µM of 59%.

Compound `O=C(Nc1cc(F)cc(F)c1)N1CCC2(CC1)CCN(C(=O)c1ccc3c(c1)C(N(C(=O)c1ccccc1Cl)C1CC1)CC3)C2` (stereo not drawn) [IND_CC-720, 2-[3-[(2-Chloro-benzoyl)-cyclopropyl-amino]-2,3-dihydro-1H-indene-5-carbonyl]-N-(3,5-difluoro-phenyl)-2,8-diazaspiro[4.5]decane-8-carboxylic acid amide] displayed an inhibition at 10 µM of 80%.

For `O=C(NCc1ccc(Cl)c(Cl)c1)N1CCC2(CC1)CCN(C(=O)c1ccc3c(c1)C(N(C(=O)c1ccccc1Cl)C1CC1)CC3)C2` (stereo not drawn) [IND_CC-721, 2-[3-[(2-Chloro-benzoyl)-cyclopropyl-amino]-2,3-dihydro-1H-indene-5-carbonyl]-N-[(3,4-dichlorophenyl)-methyl]-2,8-diazaspiro[4.5]decane-8-carboxylic acid amide], the inhibition at 10 µM worked out at 70%. With `Cc1c(CN2CCC3(CC2)CCN(C(=O)c2ccc4c(c2)C(NC(=O)c2cccc(Cl)c2Cl)CC4)C3)cnn1C` (stereo not drawn) [IND_CC-722, 2,3-Dichloro-N-[6-[8-[(1,5-dimethyl-1H-pyrazol-4-yl)-methyl]-2,8-diazaspiro[4.5]decane-2-carbonyl]-2,3-dihydro-1H-inden-1-yl]-benzamide] the figure was 81%; with `Cc1noc(C)c1CN1CCC2(CC1)CCN(C(=O)c1ccc3c(c1)C(NC(=O)c1cccc(Cl)c1Cl)CC3)C2` (stereo not drawn) [IND_CC-723, 2,3-Dichloro-N-[6-[8-[(3,5-dimethyl-isoxazol-4-yl)-methyl]-2,8-diazaspiro[4.5]decane-2-carbonyl]-2,3-dihydro-1H-inden-1-yl]-benzamide], 55%.

`N#Cc1ccccc1CN1CCC2(CC1)CCN(C(=O)c1ccc3c(c1)C(NC(=O)c1cccc(Cl)c1Cl)CC3)C2` (stereo not drawn) [IND_CC-724, 2,3-Dichloro-N-[6-[8-[(2-cyano-phenyl)-methyl]-2,8-diazaspiro[4.5]decane-2-carbonyl]-2,3-dihydro-1H-inden-1-yl]-benzamide] had an inhibition at 10 µM of 86%. As for `O=C(NC1CCc2ccc(C(=O)N3CCC4(CCN(Cc5c(F)cccc5Cl)CC4)C3)cc21)c1cccc(Cl)c1Cl` (stereo not drawn) [IND_CC-725, 2,3-Dichloro-N-[6-[8-[(2-chloro-6-fluoro-phenyl)-methyl]-2,8-diazaspiro[4.5]decane-2-carbonyl]-2,3-dihydro-1H-inden-1-yl]-benzamide], the figure is 56%; as for `O=C(NC1CCc2ccc(C(=O)N3CCC4(CCN(Cc5ccc(F)cc5Cl)CC4)CC3)cc21)c1cccc(Cl)c1Cl` (stereo not drawn) [IND_CC-726, 2,3-Dichloro-N-[6-[9-[(2-chloro-4-fluoro-phenyl)-methyl]-3,9-diazaspiro[5.5]undecane-3-carbonyl]-2,3-dihydro-1H-inden-1-yl]-benzamide], 67%; as for `O=C(NC1CCc2ccc(C(=O)N3CCC4(CCN(Cc5c(F)cccc5Cl)CC4)CC3)cc21)c1cccc(Cl)c1Cl` (stereo not drawn) [IND_CC-727, 2,3-Dichloro-N-[6-[9-[(2-chloro-6-fluoro-phenyl)-methyl]-3,9-diazaspiro[5.5]undecane-3-carbonyl]-2,3-dihydro-1H-inden-1-yl]-benzamide], 74%. As for `Cc1nc(CN2CCC3(CC2)CCN(C(=O)c2ccc4c(c2)C(NC(=O)c2c(C)cccc2Cl)CC4)C3)c[nH]1` (stereo not drawn) [IND_CC-728, 2-Chloro-6-methyl-N-[6-[8-[(2-methyl-1H-imidazol-4-yl)-methyl]-2,8-diazaspiro[4.5]decane-2-carbonyl]-2,3-dihydro-1H-inden-1-yl]-benzamide], the figure is 58%; as for `Cc1cccc(Cl)c1C(=O)NC1CCc2ccc(C(=O)N3CCC4(CCN(Cc5cnn(C)c5C)CC4)C3)cc21` (stereo not drawn) [IND_CC-729, 2-Chloro-N-[6-[8-[(1,5-dimethyl-1H-pyrazol-4-yl)-methyl]-2,8-diazaspiro-[4.5]decane-2-carbonyl]-2,3-dihydro-1H-inden-1-yl]-6-methyl-benzamide], 76%. With `Cc1cccc(Cl)c1C(=O)NC1CCc2ccc(C(=O)N3CCC4(CCN(Cc5c(C)noc5C)CC4)C3)cc21` (stereo not drawn) [IND_CC-730, 2-Chloro-N-[6-[8-[(3,5-dimethyl-isoxazol-4-yl)-methyl]-2,8-diazaspiro-[4.5]decane-2-carbonyl]-2,3-dihydro-1H-inden-1-yl]-6-methyl-benzamide] the figure was 75%; with `Cc1cccc(Cl)c1C(=O)NC1CCc2ccc(C(=O)N3CCC4(CCN(Cc5ccc(C#N)cc5)CC4)C3)cc21` (stereo not drawn) [IND_CC-731, 2-Chloro-N-[6-[8-[(4-cyano-phenyl)-methyl]-2,8-diazaspiro[4.5]decane-2-carbonyl]-2,3-dihydro-1H-inden-1-yl]-6-methyl-benzamide], 83%. `Cc1cccc(Cl)c1C(=O)NC1CCc2ccc(C(=O)N3CCC4(CCN(Cc5cccc(C#N)c5)CC4)C3)cc21` (stereo not drawn) [IND_CC-732, 2-Chloro-N-[6-[8-[(3-cyano-phenyl)-methyl]-2,8-diazaspiro[4.5]decane-2-carbonyl]-2,3-dihydro-1H-inden-1-yl]-6-methyl-benzamide] came in with an inhibition at 10 µM of 100%. In the case of `Cc1cccc(Cl)c1C(=O)NC1CCc2ccc(C(=O)N3CCC4(CCN(Cc5ccccc5C#N)CC4)C3)cc21` (stereo not drawn) [IND_CC-733, 2-Chloro-N-[6-[8-[(2-cyano-phenyl)-methyl]-2,8-diazaspiro[4.5]decane-2-carbonyl]-2,3-dihydro-1H-inden-1-yl]-6-methyl-benzamide], testing at 10 µM gave an inhibition of 83%.

The values above are taken from patent publication US8455475B2 (Gruenenthal GmbH, priority 2009, dated 2013).
